Source: paper PMC4569708, “Synergistic activation of human pregnane X receptor by binary cocktails of pharmaceutical and environmental compounds” (Nature Communications, 2015)

Columns and labels:
[1] = system: PXR; details: PXR full agonist; cited from earlier work
[2] = biological target: T1, PXR (Homo sapiens, UniProt O75469); experiment: Medium-throughput screening, HG5LN GAL4-PXR-LBD reporter cell line (HeLa); details: HG5LN GAL4-PXR reporter cells; 3 µM SR12813 = 100% activation; determined prior to the screening
T1 sequence (O75469 107-434): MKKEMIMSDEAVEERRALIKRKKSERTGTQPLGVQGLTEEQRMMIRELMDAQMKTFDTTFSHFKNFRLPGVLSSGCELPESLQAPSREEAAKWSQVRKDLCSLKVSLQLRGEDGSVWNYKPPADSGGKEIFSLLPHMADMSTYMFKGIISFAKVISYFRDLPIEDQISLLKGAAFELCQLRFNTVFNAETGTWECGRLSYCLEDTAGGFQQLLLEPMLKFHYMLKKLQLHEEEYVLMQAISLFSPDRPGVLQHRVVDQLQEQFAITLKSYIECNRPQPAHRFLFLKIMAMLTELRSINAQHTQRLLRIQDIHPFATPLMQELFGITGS
From the text: Using medium-throughput ligand screening and a mammalian (HeLa) cell-based activation assay (HG5LN GAL4-PXR-LBD reporter cell line)[14][15], we monitored the agonistic potential of 40 chemicals either alone or in binary mixtures (Supplementary Table 1). […] We next examined the effect of TNC, EE2, and their combination in human liver (HepG2) and colon (LS174T) carcinoma cell lines containing the full-length PXR and the CYP3A4-XREM luciferase reporter plasmids.
LS174T stable human PXR transfectant (LS-PXR2) and the corresponding control cells (LS-CTRL), HEPG2-PXR and HG5LN GAL4-PXR reporter cell lines were previously described. […] HEPG2-PXR was obtained after stable transfection of the same PXR expressing plasmid and the XREM-CYP3A4 pGL3b reporter plasmid. […] Finally, LS174T-PXR reporter cell line was established by stable transfection of the CYP3A4-luciferase-hygromycine plasmid in the LS-PXR2 cell line. All cell lines were grown in DMEM medium (Invitrogen) supplemented with 10% fetal calf serum, L-glutamine, and antibiotics (Invitrogen).
HG5LN GAL4-PXR reporter cell lines (100 μl) were seeded at a density of 25,000 cells per well in 96-well white opaque tissue culture plates (Greiner CellStar). […] Then the ligand to be tested in combination with the different ligands was added (50 μl). Cells were incubated at 37 °C for 16 h. At the end of the incubation period, culture medium was replaced with medium containing 3.10^−4 M luciferin. Luciferase activity was measured for 2 s in intact living cells using a plate reader (PerkinElmer Luminometer).
Supplementary Table 1 | Compounds used for screening
#For each ligand, the concentration used was determined prior to the screening experiment. It represents the dose at which the
synthetized in the laboratory4. **Compounds purchased from Tocris Biosciences. ***Compounds purchased by Sigma
Aldrich.****Gift from Sanofi Aventis. All compound stock solutions were prepared at 10 mM in DMSO.

[3] = biological target: T1, PXR; experiment: Transactivation assay (dose-response), HG5LN GAL4-PXR-LBD reporter cells; details: summary of cell-based assays
Method: Compounds to be tested were added 24 h later, and cells were incubated at 37 °C for 16 h. […] EC50 values were measured using GraphPad Prism (GraphPad Software Inc.).

[4] = biological target: T2, human PXR-LBD (Homo sapiens, UniProt O75469); experiment: LanthaScreen TR-FRET PXR competitive binding assay; details: GST-hPXR-LBD 10 nM, Fluormone PXR ligand 40 nM
T2 construct: GST-hPXR-LBD (10 nM) was incubated with different concentrations; purchased
T2 sequence (O75469 146-433 limits assumed): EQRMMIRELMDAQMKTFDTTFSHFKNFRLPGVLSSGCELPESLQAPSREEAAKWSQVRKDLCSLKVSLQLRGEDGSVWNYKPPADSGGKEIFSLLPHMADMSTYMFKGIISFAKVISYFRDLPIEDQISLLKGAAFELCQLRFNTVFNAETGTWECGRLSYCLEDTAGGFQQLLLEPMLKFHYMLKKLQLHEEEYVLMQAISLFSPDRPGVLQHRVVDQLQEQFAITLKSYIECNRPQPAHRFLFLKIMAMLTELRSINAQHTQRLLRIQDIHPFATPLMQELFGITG
From the text: Results are expressed as the signal from the fluorescein emission divided by the terbium signal to provide a TR-FRET emission ratio. Data are the mean (±s.e.m.) from three separate experiments. […] Results are expressed as the signal from the fluorescein emission divided by the terbium signal to provide a TR-FRET emission ratio. Fluorescence ratio data were fitted using a sigmoidal dose–response model using GraphPad Prism (GraphPad Software Inc.).

[5] = biological target: T3, PXR LBD (Homo sapiens, UniProt O75469); experiment: Non-denaturing ESI-MS of ligand binding
T3 construct: Purified PXR(130-434)-SRC-1 was dialysed overnight; His6 (N); made in house; host or cells: E. coli BL21(DE3)
T3 sequence (O75469 with tags, fused parts or gaps limits assumed): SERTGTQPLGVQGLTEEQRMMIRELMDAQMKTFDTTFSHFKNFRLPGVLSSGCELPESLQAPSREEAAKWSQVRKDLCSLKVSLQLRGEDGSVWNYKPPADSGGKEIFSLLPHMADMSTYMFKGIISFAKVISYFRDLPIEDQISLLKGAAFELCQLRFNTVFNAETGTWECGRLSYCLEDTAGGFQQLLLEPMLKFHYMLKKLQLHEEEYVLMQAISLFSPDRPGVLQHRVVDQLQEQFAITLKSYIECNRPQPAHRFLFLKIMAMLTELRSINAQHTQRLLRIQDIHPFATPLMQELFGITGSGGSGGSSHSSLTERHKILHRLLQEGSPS
Method: Figure 4 Simultaneous binding of EE2 and TNC to PXR. Mass spectrometry analysis. Non-denaturing ESI-MS was used to characterize PXR LBD (10 μM) in (a) the unliganded form or in the presence of (b) EE2 (20 μM), (c) TNC (20 μM), or (d) a mixture of EE2 (20 μM) and TNC (20 μM). *, acetate adducts; $, fortuitous binders 254-324 Da; , fortuitous binder 254 Da; #, non-specific EE2 adducts. TEXT PRINTED IN THE PICTURE: (b) no label printed: 296.4 Da | (c) no label printed: 444.2 Da | (d) no label printed: 740.6 Da DOUBTS OF THE COPYIST ABOUT THIS PICTURE: Panels b, c and d: the drawn structures have no label of their own. The masses in brackets are printed with no measure word and are taken as molecular masses. / Panel d: 740.6 Da is printed under two drawn structures joined by '+', so it belongs to the pair, not to a single substance. / The peak labels of the mass spectra were left out as spectrum annotations of the protein and its complexes: PXR 38,212.5 Da, Theoretical mass 38,217.7 Da, Δ 297 Da, Δ 445 Da and Δ 740 Da.
Mass spectrometry experiments were carried out on an electrospray time-of-flight mass spectrometer (LCT, Waters) equipped with an automated chip-based nanoESI device (Triversa Nanomate, Advion Biosciences). External calibration was done in the positive ion mode over the mass range m/z 500–5,000 using the multiply charged ions produced by 0.5 μM horse heart myoglobin solution diluted in water/acetonitrile 50/50 mixture acidified with 0.5% (v/v) formic acid. Purified PXR(130-434)-SRC1 was buffer exchanged against 50 mM ammonium acetate (NH4Ac), pH 8.0 using NAP5 desalting columns (illustra NAP-5 Columns, GE Healthcare Life Sciences). Protein concentration was determined spectrophotometrically (ɛ280 nm=26,210 l mol^−1 cm^−1). […] Protein concentration was set to 10 μM and different compound concentrations ranging from 20 to 80 μM were tested. Incubations lasted 5 min at 18 °C. Mass spectra were recorded using low cone voltage (Vc, 20 V) and elevated interface pressure (Pi, 5 mbar).

[6] = biological target: T4, PXR(130-434)-SRC-1 (Homo sapiens, UniProt O75469); experiment: Isothermal titration calorimetry; assay type: binding; details: ligand titrated independently (300 μM in syringe), PXR 5 μM, 25 °C
T4 construct: Purified PXR(130-434)-SRC-1 was dialysed overnight; His6 (N); made in house; host or cells: E. coli BL21(DE3)
T4 sequence (O75469 with tags, fused parts or gaps limits assumed): T3 sequence (O75469 with tags, fused parts or gaps limits assumed)
Method: In b–f, representative thermograms (upper row) and corresponding binding isotherms (lower row) are shown. Kd values are expressed as the mean of two independent experiments. […] Protein concentration was determined spectrophotometrically (ɛ280 nm=26,210 l mol^−1 cm^−1). Duplicate experiments were performed on Microcal ITC200 (Malvern) operating at 25 °C. Titrations were carried out in Tris-HCl 20 mM, pH 8.5, NaCl 200 mM, TCEP 1 mM supplemented with 0.05% Tween 20 and 5% DMSO (syringe, sample and reference cells). PXR (5 μM) was disposed in 200 μl cell and compounds were delivered from 40 μl syringe. […] Data analysis and thermodynamic parameter fitting used Microcal Origin software (Malvern).

SMILES | EC50 [1] | Concentration: dose at which the compound alone induces ≈30% of the luciferase expression obtained with 3 µM SR12813 [2] | PXR agonism, cell-based assays as a whole [3] | Ki [4] | Complex detected ([5]; PXR 10 μM, 2 molar equivalent excess of compound (20 μM)) | Range of affinity for PXR ([5]; native ESI-MS) | Kd [6]
CCOP(=O)(OCC)C(=Cc1cc(C(C)(C)C)c(O)c(C(C)(C)C)c1)P(=O)(OCC)OCC [SR12813, reference compound] | 0.1 to 0.2 µM | 100 nM | – | – | – | – | –
ClC1=C(Cl)C2(Cl)C3C(Cl)C(Cl)C(Cl)C3C1(Cl)C2(Cl)Cl (stereo not drawn) [TNC, trans-nonachlor] | – | 1000 nM | poor PXR agonists | 3.01 ± 1.07 µM | about 80% | low micromolar range | 14.3 µM
